The test system of experiment [1] is anti-GroEL antibodies. In words: Anti-GroEL antibodies binding by ELISA. Also on record: species or system rabbit. Conditions: direct and indirect ELISA, different concentrations of antibodies, FIG. 6. As to the method: Anti-GroEL antibodies binding by ELISA. The same amount of proteins (1 μg) were coated as described above. […] ELISAs were developed as described above.
Background: In an ELISA, binding on a coated surface is turned into a signal by an enzyme label.

The target in experiment [2] is T1, pig heart mitochondrial malate dehydrogenase (mtMDH) (Sus scrofa, UniProt P00346).
T1 construct: pig heart mitochondrial malate dehydrogenase (mtMDH; Boehringer-Mannheim); purchased Boehringer-Mannheim; host or cells: pig heart
T1 sequence (P00346 25-338): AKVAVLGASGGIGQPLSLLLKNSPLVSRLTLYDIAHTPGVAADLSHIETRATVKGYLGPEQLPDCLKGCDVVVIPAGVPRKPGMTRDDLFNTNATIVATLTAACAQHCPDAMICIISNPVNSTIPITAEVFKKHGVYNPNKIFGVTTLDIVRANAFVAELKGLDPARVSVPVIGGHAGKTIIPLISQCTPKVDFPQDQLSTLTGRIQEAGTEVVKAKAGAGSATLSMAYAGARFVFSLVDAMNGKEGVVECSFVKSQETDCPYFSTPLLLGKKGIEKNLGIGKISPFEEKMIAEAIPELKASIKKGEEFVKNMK
As to the kind of experiment: In vitro refolding and aggregation protection of heat- and dithiothreitol-denatured mtMDH. Type of experiment: biochemical. As to the method: In vitro refolding experiments. Refolding assays of pig heart mitochondrial malate dehydrogenase (mtMDH; Boehringer-Mannheim) and aggregation protection were carried out essentially as described (Peres Ben-Zvi, A. P., Chatellier, J., Fersht, A. R. & Goloubinoff, P. (1998) Proc. Natl. Acad. Sci. U.S.A. 95, 15275-15280). The concentrations of MC7 used were between 8-16 μM (reporter to protomer).

Experiment [3] concerns E. coli SV2 groEL44. As to the kind of experiment: In vivo complementation of thermosensitive groEL mutant at 43° C., strain SV2. It is filed as cell-based. Conditions: pJC plasmid, relative to growth at 30° C. On the procedure: In vivo complementation experiments. Complementation experiments were performed by transforming electro-competent SV2 or SV6 cells with the pJC series of expression vectors and plating an aliquot of the transformation reactions directly at 43° C. The percentage of viable cells relative to the growth at 30° C. was determined. A representative number of clones which grew at 43° C. were incubated in absence of any selective markers at permissive temperature. After prolonged growth the loss of the pJC plasmids and the ts phenotype were verified. Each experiment was performed in duplicate. Plasmids carrying no groE genes or encoding the GroE proteins were used as negative or positive controls, respectively.

Experiment [4] relates to bacteriophage T4 (T4D0). As to the kind of experiment: Growth (plaque formation) of bacteriophage T4 at 37° C. in transformed wild-type and groEL mutant strains. Type of experiment: cell-based, E. coli. Also on record: key: +++: normal plaque-forming ability relative to wild-type groEL^+ strain, in terms of both number and size; ++: 5-fold fewer plaques relative to wild-type groEL^+ strain, or both; 10-fold fewer plaques, or plaque size reduced relative to wild-type groEL^+ strain, or both; +/−: 10^2-fold fewer plaques and plaque size reduced relative to wild-type groEL^+ strain; no visible plaques (<10^−4). Conditions: pJC plasmid. An excerpt: Bacterial and bacteriophage strains. The E. coli strains used in this study were: C41(DE3), a mutant of BL21(DE3) capable of expressing toxic genes (Miroux, B. & Walker, J. E. (1996) J. Mol. Biol. 260, 289-298); SV2 (B178groEL44), SV3 (B178groEL59) and SV6 (B178groEL673): isogenic strains carrying temperature-sensitive alleles of groEL; SV1(=B178) (Georgopoulos, C., Hendrix, R. W., Casjens, S. R. & Kaiser, A. D. (1973) J. Mol. Biol. 76, 45-60), AI90 (ΔgroEL::kan^R) [pBAD-EL] (Ivic, A., Olden, D., Wallington, E. J. & Lund, P. A. (1997) Gene 194, 1-8), and TG1 (Gibson, T. J. (1984) Ph.D. thesis, University of Cambridge, U.K). Bacteriophage λb2cI (Zeilstra-Ryalls, J., Fayet, O., Baird, L. & Georgopoulos, C. (1993) J. Bacteriol. 175, 1134-1143) was used according to standard methods (Arber, W., Enquist, L., Hohn, B., Murray, N. E. & Murray, K. (1983) in Lambda II., ed. R. W. Hendrix, J. W. r., F. W. Stahl and R. A. Weisberg (Cold Spring Harbor Laboratory, Cold Spring Harbor, N.Y.), pp. 433-466); plaque formation was assayed at 30° C. T4D0, a derivative of bacteriophage T4 (Zeilstra-Ryalls, J., Fayet, O., Baird, L. & Georgopoulos, C. (1993) J. Bacteriol. 175, 1134-1143), was used according to standard methods (Karam, J. D. (1994) Molecular biology of bacteriophage T4. (American Society for Microbiology, Washington, D.C.)); plaque formation was assayed at 37° C.
Bacteriophage λ requires the chaperonins GroES and GroEL for protein folding during morphogenesis; bacteriophage T4 requires GroEL and Gp31, the latter being encoded by the bacteriophage genome (Zeilstra-Ryalls, J., Fayet, O. & Georgopoulos, C. (1991) Annu. Rev. Microbiol. 45, 301-325). Nine groE alleles which fail to support λ growth have been sequenced (Zeilstra-Ryalls, J., Fayet, O., Baird, L. & Georgopoulos, C. (1993) J. Bacteriol. 175, 1134-1143). We examined the ability of MC7, over-expressed from the constitutive tet promoter on a high-copy number vector (see FIG. 2), to complement three mutant groEL alleles for plaque formation by λ (b2cI) at 30° C. (Table 3) and T4 at 37° C. (Table 4).

Experiment [5] deals with Lorist6 (bacteriophage λ origin vector). As to the kind of experiment: Effect of over-expression on Lorist6 replication. Type of experiment: cell-based, E. coli. Conditions: over-expression from pJC vectors in TG1 or SV1. On the procedure:
Effect on Lorist6 replication of over-expressing of MC7. The effect of over-expressing Gp31 proteins from pJC vector series on the replication of the bacteriophage λ origin vector, Lorist6 (Gibson, T. J., Rosenthal, A. & Waterston, R. H. (1987) Gene 53, 283-286) in TG1 (Gibson, T. J. (1984) Ph.D. thesis, University of Cambridge, U.K) or SV1 (Georgopoulos, C., Hendrix, R. W., Casjens, S. R. & Kaiser, A. D. (1973) J. Mol. Biol. 76, 45-60) cells was determined essentially as described (Chatellier, J., Hill, F., Lund, P. & Fersht, A. R. (1998) Proc. Natl. Acad. Sci. U.S.A. 95, 9861-9866).

For “GroEL (1-548): E. coli molecular chaperone, 14 subunits of 57.5 kD in two seven membered rings [reference compound]”, in experiment [1], the “Detection by antibodies specific to GroEL” value is on record as “comparable detection levels”. The “yield of refolded mtMDH” value in experiment [2] (after 120 min, FIG. 7c) is listed as 6 nM. Further, the “rate of refolding of denatured mtMDH” value in experiment [2] (reactivation at 25° C., chaperone alone, FIG. 7b) worked out at 0.04 nM/min. Further, in experiment [3], the “Relative colony forming ability, SV2 groEL44” value is recorded as 1. In experiment [4], the “Growth of bacteriophage T4, SV1 (groEL^+)” value is given as “+++”; the “Growth of bacteriophage T4, SV2 groEL44” value was “+++”; the “Growth of bacteriophage T4, SV3 groEL59” value is listed as “+++”; the “Growth of bacteriophage T4, SV6 groEL673” value is on record as “+++”. The “Replication of the Lorist6 plasmid” value in experiment [5] was “inhibit the replication of the Lorist6 plasmid”.

For the origin of these results see patent US20020137891A1, “Protein scaffold and its use to multimerise monomeric polypeptides” (priority 1999, published 2002).
